Experimental data from paper PMC10914731, “Homo-BacPROTAC-induced degradation of ClpC1 as a strategy against drug-resistant mycobacteria” (Nature Communications, 2024).
In brackets after ≈: the same amount, converted by molar mass. Several values for one entry are separate records, joined by “and”; a condition that tells them apart may be missing. Equal values may be shown once. Read-outs that look alike come from different tables or passages of the source.

Assays:
Msm 607 = experiment: microbe, parasite or virus in culture; format: cell-based
Msm 700084 = experiment: microbe, parasite or virus in culture; format: cell-based
[1] = target: ClpC1-NTD substrate, M. tuberculosis ClpC1P1P2 (Mycobacterium tuberculosis, UniProt P9WPC9); experiment: biochemical; format: biochemical; settings: Mtb
ClpC1-NTD substrate, M. tuberculosis ClpC1P1P2, sequence (P9WPC5 whole entry): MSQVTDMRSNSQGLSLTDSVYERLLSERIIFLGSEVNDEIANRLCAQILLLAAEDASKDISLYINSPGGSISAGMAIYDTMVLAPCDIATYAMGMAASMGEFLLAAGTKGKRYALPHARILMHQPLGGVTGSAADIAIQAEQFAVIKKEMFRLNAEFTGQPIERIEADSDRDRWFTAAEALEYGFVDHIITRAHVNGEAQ
ClpC1-NTD substrate, M. tuberculosis ClpC1P1P2, sequence (P9WPC9 whole entry): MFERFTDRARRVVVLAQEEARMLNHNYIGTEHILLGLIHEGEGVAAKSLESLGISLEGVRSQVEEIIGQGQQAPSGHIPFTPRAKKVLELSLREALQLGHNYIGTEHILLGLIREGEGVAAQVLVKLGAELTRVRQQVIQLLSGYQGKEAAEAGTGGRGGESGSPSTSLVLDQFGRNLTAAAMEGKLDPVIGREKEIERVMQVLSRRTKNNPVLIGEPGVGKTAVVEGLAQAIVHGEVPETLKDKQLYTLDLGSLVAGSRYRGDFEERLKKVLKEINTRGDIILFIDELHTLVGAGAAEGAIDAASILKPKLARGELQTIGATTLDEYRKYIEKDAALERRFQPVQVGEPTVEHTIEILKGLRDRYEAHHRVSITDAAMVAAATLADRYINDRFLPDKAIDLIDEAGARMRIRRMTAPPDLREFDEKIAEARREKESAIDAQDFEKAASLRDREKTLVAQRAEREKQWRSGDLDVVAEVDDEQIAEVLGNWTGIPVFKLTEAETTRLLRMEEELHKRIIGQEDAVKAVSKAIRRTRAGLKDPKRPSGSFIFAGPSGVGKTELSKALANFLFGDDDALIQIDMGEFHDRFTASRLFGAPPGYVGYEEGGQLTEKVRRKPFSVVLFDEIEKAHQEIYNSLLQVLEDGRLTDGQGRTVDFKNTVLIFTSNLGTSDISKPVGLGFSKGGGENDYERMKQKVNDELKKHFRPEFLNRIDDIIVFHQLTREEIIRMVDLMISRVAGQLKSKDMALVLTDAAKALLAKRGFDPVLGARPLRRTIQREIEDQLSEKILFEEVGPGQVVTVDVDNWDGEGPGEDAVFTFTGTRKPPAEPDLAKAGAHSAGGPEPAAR
ClpC1-NTD substrate, M. tuberculosis ClpC1P1P2, sequence (P9WPC3 whole entry, further chain): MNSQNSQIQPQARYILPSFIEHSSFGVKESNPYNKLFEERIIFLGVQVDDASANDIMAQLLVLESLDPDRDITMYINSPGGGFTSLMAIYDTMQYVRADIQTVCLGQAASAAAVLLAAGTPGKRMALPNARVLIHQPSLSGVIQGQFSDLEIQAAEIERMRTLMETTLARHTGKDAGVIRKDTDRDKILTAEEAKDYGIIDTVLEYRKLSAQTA

[2] = Microsomal stability, human; format: in vitro ADME
Summary of the method: (§1)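 Clearance, expressed as % liver blood flow (%Qh), derived by the well-stirred model from first-order half-lives. Depletion monitored by HPLC-MS/MS in acetonitrile-stopped samples over time; 37 °C, NADPH 1 mM, microsomes 0.5 mg/ml, compound 1 µmol/l, Tris-HCl pH 7.5 with MgCl2.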

[3] = format: in vitro ADME, Mice; settings: clearance in microsomes
Summary of the method: as §1

[4] = format: in vitro ADME, Human; settings: human, pH 7.4
Caco-2 monolayers = experiment: in vitro; settings: human, Caco-2
Summary of the method: (§2)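 Values are bidirectional Caco-2 apparent permeabilities, P(A−B) and P(B−A), given in 10^-6 cm s-1. The efflux ratio divides P(B−A) by P(A−B), and intrinsic permeability averages the two directions.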

in vitro = settings: human
Summary of the method: as §2

[5] = target: His6-tagged ClpC1-NTD substrate, M. smegmatis ClpC1P1P2 (UniProt A0R574+P9WPC9); experiment: biochemical; format: biochemical; settings: Msm
His6-tagged ClpC1-NTD substrate, M. smegmatis ClpC1P1P2, sequence (P9WPC9 1-156, looked up, natural form): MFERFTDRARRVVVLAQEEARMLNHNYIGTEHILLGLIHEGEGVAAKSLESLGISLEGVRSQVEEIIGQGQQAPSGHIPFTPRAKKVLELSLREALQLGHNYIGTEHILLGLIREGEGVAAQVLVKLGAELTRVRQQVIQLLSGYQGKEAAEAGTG
His6-tagged ClpC1-NTD substrate, M. smegmatis ClpC1P1P2, sequence (A0R574 whole entry): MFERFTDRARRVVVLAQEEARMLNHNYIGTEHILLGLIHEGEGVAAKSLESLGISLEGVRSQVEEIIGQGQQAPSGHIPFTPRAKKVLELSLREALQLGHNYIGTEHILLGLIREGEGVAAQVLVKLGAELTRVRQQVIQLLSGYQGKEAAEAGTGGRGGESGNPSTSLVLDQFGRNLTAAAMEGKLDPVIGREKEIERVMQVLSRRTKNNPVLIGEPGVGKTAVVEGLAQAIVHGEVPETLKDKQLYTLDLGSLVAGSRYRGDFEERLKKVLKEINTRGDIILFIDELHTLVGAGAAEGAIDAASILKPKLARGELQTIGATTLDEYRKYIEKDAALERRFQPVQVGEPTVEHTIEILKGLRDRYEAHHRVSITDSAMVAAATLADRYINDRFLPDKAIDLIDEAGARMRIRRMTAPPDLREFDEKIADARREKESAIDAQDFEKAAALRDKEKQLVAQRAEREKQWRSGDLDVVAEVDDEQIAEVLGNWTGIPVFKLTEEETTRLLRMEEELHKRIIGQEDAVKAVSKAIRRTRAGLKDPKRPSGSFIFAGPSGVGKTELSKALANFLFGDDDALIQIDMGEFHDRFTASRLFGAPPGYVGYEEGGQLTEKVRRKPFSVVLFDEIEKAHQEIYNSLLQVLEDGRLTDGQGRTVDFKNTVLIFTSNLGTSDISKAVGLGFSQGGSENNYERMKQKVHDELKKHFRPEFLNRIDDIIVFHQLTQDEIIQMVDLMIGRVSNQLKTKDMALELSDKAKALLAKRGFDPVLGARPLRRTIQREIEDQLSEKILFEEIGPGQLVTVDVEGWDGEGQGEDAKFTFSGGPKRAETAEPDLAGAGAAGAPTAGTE

[6] = target: ClpC1 NTD protein (M. tuberculosis) (Mycobacterium tuberculosis, UniProt P9WPC9); experiment: biochemical; format: binding; settings: SPR
ClpC1 NTD protein (M. tuberculosis), sequence (P9WPC9 1-156, looked up, natural form): as the sequence (P9WPC9 1-156, looked up, natural form) above

[7] = Hepatocyte stability, mice; format: in vitro ADME; settings: mouse, pH 7.4
Summary of the method: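 Parent depletion by HPLC-MS/MS in mouse hepatocyte suspension (50% serum, ~1 million cells/mL) with 1 µM compound over up to 6 h at 37 °C. Half-lives were scaled to % Qh using the well-stirred liver model.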

[8] = test system: M. tuberculosis H37Rv (ATCC 27294); experiment: microbe, parasite or virus in culture; format: cell-based
[9] = test system: Mtb H37Rv in THP-1 macrophages; experiment: Intracellular MIC assay in THP-1 macrophages; format: cell-based, Mycobacterium tuberculosis; set-up: Emax: unit not given here
[10] = format: in vitro ADME, Rat; settings: rat, pH 7.4
[11] = format: in vitro ADME, Rat
Summary of the method: as §1

Mtb # 8673 = experiment: microbe, parasite or virus in culture; format: cell-based
Mtb # 11291 = experiment: microbe, parasite or virus in culture; format: cell-based; settings: for MIC: read-out: MIC Mtb # 11291
[12] = test system: Mtb (katG del) ATCC 35822; experiment: microbe, parasite or virus in culture; format: cell-based
Mtb (moxR) FNDR-M1 = experiment: microbe, parasite or virus in culture; format: cell-based
[13] = mean of the measurements, read-out: 1-Dmax, Mean
[14] = mean of the measurements, read-out: DC50, Mean
[15] = Mycobacterium tuberculosis, mean, n = 2 well replicates
[16] = Mycobacterium tuberculosis, single well replicates

SMILES: CO[C@H](c1ccccc1)[C@@H]1NC(=O)[C@H](C)NC(=O)[C@H](C[C@@H](C)CO)N(C)C(=O)[C@H](Cc2cn(C)c3ccccc23)NC(=O)[C@H](Cc2cn(CCOCCOCCn3cc(C[C@@H]4NC(=O)[C@H](CC(C)C)N(C)C(=O)[C@H](C(C)C)NC(=O)[C@H]([C@H](OC)c5ccccc5)NC(=O)[C@H](C)NC(=O)[C@H](C[C@@H](C)CO)N(C)C(=O)[C@H](Cc5cn(C)c6ccccc56)NC4=O)nn3)nn2)NC(=O)[C@H](CC(C)C)N(C)C(=O)[C@H](C(C)C)NC1=O [Compound 11]
- MIC (Msm 607; Mycolicibacterium smegmatis, 607, read-out: MIC Msm 607): 1.6 µM (≈ 3.24 µg/mL)
- MIC (Msm 607; Mycolicibacterium smegmatis, 607, read-out: Msm 607 MIC, single determinations): 1.56 µM (≈ 3.16 µg/mL)
- MIC (Msm 700084; Mycolicibacterium smegmatis, 700084, single determinations, read-out: Msm 700084 MIC): 1.56 µM (≈ 3.16 µg/mL)
- MIC (Msm 700084; Mycolicibacterium smegmatis, 700084, read-out: MIC Msm 700084): 1.6 µM (≈ 3.24 µg/mL)
- 1-Dmax, single measurements ([1]; Measurement 1-4): 69.6%
- 1-Dmax (percent substrate remaining at maximal degradation) ([1]; Measurement 1-4, read-out: 1-Dmax, single measurements): 77.4%
- DC50 ([1]; Measurement 1-4, read-out: DC50, single measurements): 4700 nM and 5400 nM
- 1-Dmax (percent substrate remaining at maximal degradation) [1, 13]: 74%
- DC50 [1, 14]: 5100 nM
- Microsomal Stability Human QH ([2]; Human): <24.4%
- Microsomal Stability Human ([2]; clearance in microsomes): < 24 %Qh
- Microsomal Stability Mice [3]: < 24 %Qh
- Hepatocyte Human [4]: 12 %Qh
- Hepatocyte Stability Human QH [4]: 12.386%
- Caco-2 Int. Perm (Caco-2 monolayers): 2.9
- efflux ratio (in vitro; Caco-2): 2.6
- Papp B→A (in vitro; Caco-2, CACO permeability PEBA): 0.36 ×10⁻⁶ cm/s
- Papp A→B (in vitro; Caco-2, Caco-2 permeability P (A-B)): 1.6 ×10⁻⁶ cm/s
- Papp B→A (in vitro; Caco-2, Caco-2 permeability P (B-A)): 4.2 ×10⁻⁶ cm/s
- 1-Dmax, single measurements ([5]; Measurement 1-6): 84.8% and 87.6% and 91.1%
- 1-Dmax (percent substrate remaining at maximal degradation) ([5]; Measurement 1-6, read-out: 1-Dmax, single measurements): 85.6%
- DC50 ([5]; Measurement 1-6, read-out: DC50, single measurements): 7400 nM and 6100 nM and 5000 nM and 3900 nM
- 1-Dmax (percent substrate remaining at maximal degradation) [5, 13]: 87%
- DC50 [5, 14]: 5600 nM
- Kd ([6]; individual measurements (source data), read-out: KD ClpC1-NTD): 0.306 nM and 0.313 nM and 0.72 nM and 0.499 nM and 0.412 nM and 0.253 nM and 0.262 nM
- koff ClpC1-NTD ([6]; single independent measurements): 0.0009 s⁻¹ and 0.0004 s⁻¹
- Kd ([6]; read-out: ClpC1-NTD KD Mean ± SD): 0.4 ± 0.2 nM
- Hepatocyte Mice [7]: 15 %Qh
- MIC ([8]; Mycobacterium tuberculosis, M. tuberculosis H37Rv strain, read-out: MIC Mtb H37Rv Mean ± SD): 0.1 µM (≈ 0.203 µg/mL)
- MIC ([8]; Mycobacterium tuberculosis, Mtb H37Rv (Supplementary Table 2), read-out: MIC Mtb): 0.1 µM (≈ 0.203 µg/mL)
- MIC ([8]; Mycobacterium tuberculosis, individual measurements (source data), read-out: Mtb MIC): 0.097 µM (≈ 0.197 µg/mL)
- MIC ([8]; Mycobacterium tuberculosis, single determinations, read-out: Mtb MIC): 0.097 µM (≈ 0.197 µg/mL)
- MIC ([8]; individual measurements (source data), read-out: Mtb MIC): 0.097 µM (≈ 0.197 µg/mL)
- Emax [9]: 0.51
- Hepatocyte Rat [10]: 6 %Qh
- Hepatocyte Stability Rat QH [10]: 6.192%
- Microsomal Stability Rat QH ([11]; Rat): <23.1%
- Microsomal Stability Rat ([11]; clearance in microsomes): < 23 %Qh

SMILES: NNC(=O)c1ccncc1 [Isoniazid]
- MIC (Mtb # 8673; [15]): 467 µM and 64 µg/mL
- MIC (Mtb # 8673; [16]): 467 µM and 64 µg/mL
- MIC (Mtb # 8673; single well replicates): 466.68 µM (≈ 64 µg/mL)
- MIC Mtb # 8673 (Mtb # 8673; single well replicates): 64 µg/mL (≈ 467 µM)
- MIC (Mtb # 11291; [15]): 3.6 µM and 0.5 µg/mL
- MIC (Mtb # 11291; [16]): 3.65 µM and 0.5 µg/mL
- MIC Mtb # 11291 (Mtb # 11291; single well replicates): 0.5 µg/mL (≈ 3.65 µM)
- MIC (Mtb # 11291; single well replicates): 3.65 µM (≈ 0.501 µg/mL)
- MIC ([12]; M. tuberculosis ATCC 35822, single well replicates): >232.22 µM
- MIC ([12]; Mycobacterium tuberculosis, ATCC35822, M. tuberculosis ATCC 35822, single well replicates): > 232 µM
- MIC ([12]; Mycobacterium tuberculosis, ATCC35822, Mtb (katG del) ATCC 35822, mean ± SD, n = 3 well replicates): > 232 µM
- MIC (Mtb (moxR) FNDR-M1; M. tuberculosis FNDR-M1, single well replicates): 0.11 µM (≈ 0.0151 µg/mL)
- MIC (Mtb (moxR) FNDR-M1; Mycobacterium tuberculosis, M. tuberculosis FNDR-M1, single well replicates): 0.11 µM (≈ 0.0151 µg/mL)
- MIC (Mtb (moxR) FNDR-M1; Mycobacterium tuberculosis, Mtb (moxR) FNDR-M1, mean ± SD, n = 3 well replicates): 0.1 µM (≈ 0.0137 µg/mL)
- MIC ([8]; M. tuberculosis H37Rv 27294, single well replicates, read-out: MIC): 0.23 µM (≈ 0.0315 µg/mL)
- MIC ([8]; Mycobacterium tuberculosis, M. tuberculosis H37Rv 27294, single well replicates, read-out: MIC): 0.23 µM (≈ 0.0315 µg/mL)
- MIC ([8]; Mycobacterium tuberculosis, Mtb H37Rv, mean ± SD, n = 3 well replicates, read-out: MIC): 0.2 µM (≈ 0.0274 µg/mL)
